Measurements reported in patent publication US20260315487A1, “IKK-ALPHA INHIBITORS” (Cancer Research Technology Limited, priority 2023, published 2026).

Columns and labels:
Assay type in all cases: biochemical
[1] = target: T1, IKKβ (Homo sapiens, UniProt O14920); experiment: in-house DELFIA kinase assay, IKKβ
T1 sequence (O14920 1-756): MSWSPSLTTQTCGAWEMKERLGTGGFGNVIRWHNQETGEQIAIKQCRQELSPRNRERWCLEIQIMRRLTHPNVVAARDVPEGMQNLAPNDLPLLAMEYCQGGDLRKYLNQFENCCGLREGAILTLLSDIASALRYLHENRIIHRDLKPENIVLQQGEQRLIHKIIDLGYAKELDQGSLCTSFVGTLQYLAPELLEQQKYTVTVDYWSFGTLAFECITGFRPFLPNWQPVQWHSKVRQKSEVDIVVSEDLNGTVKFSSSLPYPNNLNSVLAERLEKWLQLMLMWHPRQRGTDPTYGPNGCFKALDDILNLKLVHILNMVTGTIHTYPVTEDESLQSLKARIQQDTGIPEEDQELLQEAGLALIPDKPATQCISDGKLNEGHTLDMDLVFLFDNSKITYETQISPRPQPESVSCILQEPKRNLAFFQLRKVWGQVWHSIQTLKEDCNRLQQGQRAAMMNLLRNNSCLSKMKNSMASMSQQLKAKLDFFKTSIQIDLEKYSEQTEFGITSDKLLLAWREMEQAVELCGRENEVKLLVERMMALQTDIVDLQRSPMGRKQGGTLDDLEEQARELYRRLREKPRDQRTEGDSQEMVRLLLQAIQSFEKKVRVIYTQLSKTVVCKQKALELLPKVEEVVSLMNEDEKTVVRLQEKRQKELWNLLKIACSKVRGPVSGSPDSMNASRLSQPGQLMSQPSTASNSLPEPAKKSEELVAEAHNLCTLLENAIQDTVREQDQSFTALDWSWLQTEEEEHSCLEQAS
From the text: (§1) To examine the pyrrolo[2,3 -b]pyridines as an alternative scaffold, we adopted the AIPP core because it had similar dimensions to 1 SU909, with HBD/HBA motifs positioned at the scaffold extremities to interact with both the hinge region and the G-loop wall of IKKα, a rationale we had previously proposed as the basis for imparting selectivity. A preliminary set of AIPP derivatives was designed to explore its utility as an IKK-targeting scaffold, whilst incorporating additional functionality through which to introduce selectivity for the IKKα isoform (2-4 SU1087, SU1266 and SU1253; FIG. 3). This was achieved by initially adopting two different approaches: either appending a hydrophobic moiety to the pyrrolo[2,3 -b]pyridine motif as a fused form to afford the tricyclic derivatives 2 and 3 SU1266 and SU1087, or as a phenyl substituent to introduce flexibility with the central pyrrolo[2,3 -b]pyridine moiety in 4 SU1253 .

[2] = target: T2, IKKα (Homo sapiens, UniProt O15111); experiment: in-house DELFIA kinase assay, IKKα
T2 sequence (O15111 1-745): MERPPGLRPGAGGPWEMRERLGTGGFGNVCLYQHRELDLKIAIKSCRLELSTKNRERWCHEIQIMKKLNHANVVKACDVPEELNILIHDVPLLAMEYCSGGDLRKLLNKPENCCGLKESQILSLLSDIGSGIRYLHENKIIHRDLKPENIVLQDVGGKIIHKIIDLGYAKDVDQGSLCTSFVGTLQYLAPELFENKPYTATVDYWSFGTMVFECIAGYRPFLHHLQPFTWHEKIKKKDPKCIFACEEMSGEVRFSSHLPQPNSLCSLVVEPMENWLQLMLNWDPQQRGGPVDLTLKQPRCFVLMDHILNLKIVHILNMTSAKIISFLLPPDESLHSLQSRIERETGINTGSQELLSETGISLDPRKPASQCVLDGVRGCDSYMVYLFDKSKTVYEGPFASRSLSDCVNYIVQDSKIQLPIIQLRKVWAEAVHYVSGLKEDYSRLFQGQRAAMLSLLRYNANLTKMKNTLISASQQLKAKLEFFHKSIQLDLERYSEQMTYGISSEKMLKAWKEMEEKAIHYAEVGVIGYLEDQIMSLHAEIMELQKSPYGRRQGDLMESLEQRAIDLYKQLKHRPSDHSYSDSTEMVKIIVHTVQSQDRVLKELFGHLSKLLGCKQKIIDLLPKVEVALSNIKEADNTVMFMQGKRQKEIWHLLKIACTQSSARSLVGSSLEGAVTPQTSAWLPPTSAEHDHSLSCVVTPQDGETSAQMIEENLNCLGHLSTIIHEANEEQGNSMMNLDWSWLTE
From the text: as §1, with “SU1253 . […] The pyrrolo[2,3 -b]pyridine was bound to the hinge region in the classical HBA/HBD motif with the GK+3 NH and C═O backbone, whilst the aminoindazole projected towards the top of the pocket to interact with the G-loop (FIG. 4A). […] In both isoforms, the 2 -phenyl moiety was oriented out from the hinge towards the exposed solvent area.” for “SU1253 .”

[3] = system: IKKα over IKKβ; experiment: selectivity for IKKα over IKKβ from the kinase assay
From the text: as §1, with “SU1253 . […] The pyrrolo[2,3 -b]pyridine was bound to the hinge region in the classical HBA/HBD motif with the GK+3 NH and C═O backbone, whilst the aminoindazole projected towards the top of the pocket to interact with the G-loop (FIG. 4A). […] In both isoforms, the 2 -phenyl moiety was oriented out from the hinge towards the exposed solvent area.” for “SU1253 .”
To shift the selectivity profile towards IKKα, we selected 4 SU1253 for structural optimization based on the notion that sigma-bond rotation between the phenyl ring and the pyrrolo[2,3 -b]pyridine would inbuild the flexibility required to engage with the three dimensional array of residues nearby to exploit differences between the two isoforms. Furthermore, this would enable the inclusion of moieties that could also project into solvent and address solubility considerations. Small groups (NH2, OH, OMe, OEt and F) were initially introduced into the phenyl ring to evaluate their impact on the selectivity profile against both IKKs (5 a-g SU1354 -SU1373, Table 2 ). Our goal was to achieve a 1:50 selectivity ratio of IKKα to IKKβ, with a minimum IKKβ inhibitory Ki of 500 nM.

| Ki [1] [µM] | Ki [2] [µM] | Structure (SMILES) | selectivity for IKKα over IKKβ, in words [3] | IKKβ inhibition, in words [1] |
| --- | --- | --- | --- | --- |
| 0.191 | 0.01 | Nc1n[nH]c2ccc(-c3ccnc4[nH]c(-c5cccc(CNC6CCCC6)c5)cc34)cc12 [5n SU1550, 5-(2-(3-((cyclopentylamino)methyl)phenyl)-1 H-pyrrolo[2,3-b]pyridin-4-yl)-1 H-indazol-3-amine] | tended to improve selectivity |  |
| 0.189 | 0.016 | Nc1n[nH]c2ccc(-c3ccnc4[nH]c(-c5ccc(OCc6ccccc6)cc5)cc34)cc12 [5s SU1334] | tended to improve IKKβactivity to reduce selectivity |  |
| 0.067 | 0.004 | Cc1ccc(S(=O)(=O)Nc2ccc(-c3cc4c(-c5ccc6[nH]nc(N)c6c5)ccnc4[nH]3)cc2)cc1 [5u SU1283, N-(4-(4-(3 -Amino-1 H-indazol-5-yl)-1 H-pyrrolo[2,3-b]pyridin-2-yl)phenyl)-4-methylbenzenesulfonamide] | tended to improve IKKβactivity to reduce selectivity |  |
| 0.029 | 0.009 | Nc1n[nH]c2ccc(-c3ccnc4[nH]c(-c5cccc(OCCN6CCOCC6)c5)cc34)cc12 [5y SU1336, 5-(2-(3-(2 -Morpholinoethoxy)phenyl)-1 H-pyrrolo[2,3-b]pyridin-4-yl)-1 H-indazol-3-amine] |  | good IKKβ inhibition |
| 0.166 | 0.043 | COc1ccc(COc2cccc(-c3cc4c(-c5ccc6[nH]nc(N)c6c5)ccnc4[nH]3)c2)cc1 [5z SU1363, 5-(2-(3-((4 -Methoxybenzyl)oxy)phenyl)-1 H-pyrrolo[2,3-b]pyridin-4-yl)-1 H-indazol-3-amine] |  |  |
| 5.03 | 0.059 | Nc1n[nH]c2ccc(-c3ccnc4[nH]c(-c5cc(F)cc(OCc6ccccc6)c5)cc34)cc12 [6a SU1371, 5-(2-(3-(Benzyloxy)-5-fluorophenyl)-1 H-pyrrolo[2,3-b]pyridin-4-yl)-1 H-indazol-3-amine] |  |  |
| 1.22 | 0.029 | COCCOCc1cc(OCc2ccccc2)cc(-c2cc3c(-c4ccc5[nH]nc(N)c5c4)ccnc3[nH]2)c1 [6b SU1358, 5-(2-(3-(Benzyloxy)-5-((2-methoxyethoxy)methyl)phenyl)-1 H-pyrrolo[2,3-b]pyridin-4-yl)-1 H-indazol-3-amine] |  |  |
| 1.53 | 0.026 | COCCNc1cc(OCc2ccccc2)cc(-c2cc3c(-c4ccc5[nH]nc(N)c5c4)ccnc3[nH]2)c1 [6c SU1365, 5-(2-(3-(Benzyloxy)-5-((2-methoxyethyl)amino)phenyl)-1 H-pyrrolo[2,3-b]pyridin-4-yl)-1 H-indazol-3-amine] |  |  |
| 0.022 | 0.012 | Nc1n[nH]c2ccc(-c3ccnc4[nH]c(-c5ccc(OCc6ccccc6)nc5)cc34)cc12 [6d SU1350, 5-(2-(6-(Benzyloxy)pyridin-3-yl)-1 H-pyrrolo[2,3-b]pyridin-4-yl)-1 H-indazol-3-amine] | reduced selectivity |  |
| 1.55 | 0.021 | Nc1n[nH]c2ccc(-c3ccnc4[nH]c(-c5cncc(OCc6ccccc6)c5)cc34)cc12 [6e SU1337, 5-(2-(5-(Benzyloxy)pyridin-3-yl)-1 H-pyrrolo[2,3-b]pyridin-4-yl)-1 H-indazol-3-amine] |  |  |
| 0.503 | 0.033 | Nc1n[nH]c2ccc(-c3ccnc4[nH]c(-c5cc(F)nc(CNc6ccccc6)c5)cc34)cc12 [6f SU1394, 5-(2-(2 -Fluoro-6-((phenylamino)methyl)pyridin-4-yl)-1 H-pyrrolo[2,3-b]pyridin-4-yl)-1 H-indazol-3-amine] |  |  |
| 1.18 | 0.005 | Nc1n[nH]c2ccc(-c3ccnc4[nH]c(-c5ccnc(SCc6ccccc6)c5)cc34)cc12 [6h SU1615, 5-(2-(2-(Benzylthio)pyridin-4-yl)-1 H-pyrrolo[2,3-b]pyridin-4-yl)-1 H-indazol-3-amine] |  |  |
| 3 | 0.127 | Nc1n[nH]c2ccc(-c3ccnc4[nH]c(-c5cc(F)nc(SCc6ccccc6)c5)cc34)cc12 [6i SU1380, 5-(2-(2-(Benzylthio)-6-fluoropyridin-4-yl)-1 H-pyrrolo[2,3-b]pyridin-4-yl)-1 H-indazol-3-amine] |  |  |
| 2.3 | 0.025 | Nc1n[nH]c2ccc(-c3ccnc4[nH]c(-c5cc(OCc6ccccc6)ccn5)cc34)cc12 [6j SU1602, 5-(2-(4-(Benzyloxy)pyridin-2-yl)-1 H-pyrrolo[2,3-b]pyridin-4-yl)-1 H-indazol-3-amine] |  |  |
| 1.6 | 0.042 | Nc1n[nH]c2ccc(-c3ccnc4[nH]c(-c5ccnc(OCCc6ccccc6)c5)cc34)cc12 [6l SU1621, 5-(2-(2 -Phenethoxypyridin-4-yl)-1 H-pyrrolo[2,3-b]pyridin-4-yl)-1 H-indazol-3-amine] |  |  |

| Structure (SMILES) | Ki [1] [µM] | Ki [2] [µM] | selectivity for IKKα over IKKβ, in words [3] | IKKβ inhibition, in words [1] |
| --- | --- | --- | --- | --- |
| CC(C)COc1cccc(-c2cc3c(-c4ccc5[nH]nc(N)c5c4)ccnc3[nH]2)c1 [5o SU1367, 5-(2-(3 -Isobutoxyphenyl)-1 H-pyrrolo[2,3-b]pyridin-4-yl)-1 H-indazol-3-amine] | 0.458 | 0.019 | tended to improve selectivity | lowest activity against IKKβ |
